Results from patent publication US11300570B2, “Therapeutic and diagnostic methods for cancer” (Genentech, Inc., priority 2016, dated 2022).

Assays:
[1] = tested on: locally advanced or metastatic NSCLC; test: OAK Phase III randomized trial, atezolizumab vs docetaxel, in 2L+ NSCLC, efficacy by tTMB; assay type: in vivo, human; conditions: for Median OS / Median PFS: 2L+ OAK
From the text: (§1) Patients were eligible for enrollment in the POPLAR study if they had locally advanced or metastatic (e.g., stage IIIB, stage IV, or recurrent) NSCLC; disease progression during or following treatment with a prior platinum-containing regimen for locally advanced, unresectable/inoperable, or metastatic NSCLC, or disease recurrence within 6 months of treatment with a platinum-based adjuvant/neoadjuvant regimen; measurable disease, as defined by RECIST v1.1; and an ECOG performance status of 0 or 1. Participants were randomized to receive either atezolizumab at a dose of 1200 mg intravenously every three weeks or docetaxel 75 mg per meter square (mg/m^2) intravenously every three weeks. Treatment with atezolizumab could be continued as long as participants were experiencing clinical benefit, i.e., in the absence of unacceptable toxicity or symptomatic deterioration attributed to disease progression. Pre-treatment tumor samples from patients in the Phase III OAK trial (Clinical Trial ID No.: NCT02008227) were also evaluated for tTMB. Patients were eligible for enrollment in the OAK study if they had locally advanced or metastatic (e.g., stage IIIB, stage IV, or recurrent) NSCLC; disease progression during or following treatment with a prior platinum-containing regimen for locally advanced, unresectable/inoperable, or metastatic NSCLC, or disease recurrence within 6 months of treatment with a platinum-based adjuvant/neoadjuvant regimen; measurable disease, as defined by RECIST v1.1; and an ECOG performance status of 0 or 1. Participants were randomized to receive either atezolizumab at a dose of 1200 mg intravenously every three weeks or docetaxel 75 mg per square meter (mg/m^2) intravenously every three weeks. Treatment with atezolizumab could be continued as long as participants were experiencing clinical benefit, i.e., in the absence of unacceptable toxicity or symptomatic deterioration attributed to disease progression.
(§2) To identify somatic mutations, tumor samples (e.g., archival tumor samples) were processed as described in Frampton et al. Nat. Biotechnol. 31:1023-31, 2013. Sequencing libraries were constructed to sequence and analyze samples. In addition to standard mutation processing, a mutation load estimation algorithm was applied that, based on the number of somatic mutations and/or rearrangements detected in Table 1 or Table 2, respectively, extrapolates to the exome or the genome as a whole. For purposes of mutation load estimation, all coding short variant alterations, base substitutions, and indels detected in the genes listed in Table 1 and Table 2 were counted. Further, all coding alterations (base substitutions and indels), including synonymous alterations, with the exception of known oncogenic driver mutations, in the genes listed in Table 1 and Table 2 were counted. However, numerous classes of detected alterations were not counted: non-coding alterations; alterations with known (occurring as known somatic alterations in the COSMIC database (Forbes et al. (2014) Nucl. Acids Res. 43:D805-11) and likely (truncations in tumor suppressor genes) functional status; known germline alterations in the dbSNP database (Sherry et al. (2001) Nucleic Acids Res. 29(1):308-11); germline alterations occurring with two or more counts in the ExAC database (Exome Aggregation Consortium (ExAC), Cambridge, Mass.); alterations that are predicted to be germline in the specimen being assessed; and alterations that are predicted to be germline in a cohort of >60,000 clinical specimens. Finally, to calculate the mutation load per megabase, the total number of mutations counted was divided by the coding region target territory of the test, which was 1.110 megabases (Mb) for the current version of the test. The average median coverage value for all samples was 490.
The BEP was defined as patients with at least one tTMB measurement from a baseline tumor sample. […]

[2] = tested on: locally advanced or metastatic NSCLC (PD-L1-unselected patients); test: POPLAR Phase II randomized trial, atezolizumab vs docetaxel, in 2L+ PD-L1-unselected NSCLC, efficacy by tTMB; assay type: in vivo, human; conditions: POPLAR; for OS HR (95% CI) / PFS HR (95% CI): atezolizumab vs docetaxel
From the text: as §1
Data from the single-arm, PD-L1-selected trials BIRCH and FIR were combined and analyzed to examine the association between tTMB and clinical outcomes among PD-L1-selected patients. Data from the randomized, PD-L1-unselected trial, POPLAR, were analyzed separately and treatment effects between the atezolizumab- and docetaxel-treatment arms were compared.
as §2, with “Finally, to calculate the mutation load per megabase, the total number of mutations counted was divided by the coding region target territory of the test, which was 1.110 megabases (Mb) for the current version of the test. The average median coverage value for all samples was 490.” left out

[3] = BEP (evaluable for TMB) (n = 174 atezolizumab, 186 docetaxel)
[4] = tTMB score <9 mut/Mb (n = 91 atezolizumab, 87 docetaxel)
[5] = tTMB score <16 mut/Mb (n = 135 atezolizumab, 136 docetaxel)
[6] = tTMB score ≥9 mut/Mb (n = 83 atezolizumab, 99 docetaxel)
[7] = tTMB score ≥16 mut/Mb (n = 39 atezolizumab, 50 docetaxel)
[8] = tTMB quantile ≥25%, unadjusted, unstratified
[9] = tTMB quantile ≥50% (median), unadjusted, unstratified
[10] = tTMB quantile ≥75%, unadjusted, unstratified

Substance: atezolizumab
- Median OS [1, 3]: 13.3 months
- Median PFS [1, 3]: 2.0 months
- Median OS ([1]; ITT (n = 425 per arm)): 13.8 months
- Median PFS ([1]; ITT (n = 425 per arm)): 2.0 months
- Median OS [1, 4]: 14.2 months
- Median PFS [1, 4]: 1.8 months
- Median OS [1, 5]: 12.7 months
- Median PFS [1, 5]: 1.7 months
- Median OS [1, 6]: 13.3 months
- Median PFS [1, 6]: 2.5 months
- Median OS [1, 7]: 18.7 months
- Median PFS [1, 7]: 5.5 months
- association of tissue TMB with efficacy ([1]; OAK study): associated with improved efficacy
- association of tTMB with efficacy of atezolizumab compared to docetaxel ([2]; PD-L1-unselected 2L+ patients with NSCLC): trend towards an association of tTMB with improved efficacy
- clinical benefit in patients with low or no PD-L1 expression on TC and IC ([2]; long-term follow-up (FIG. 1)): can also derive clinical benefit
- ORR (confirmed per RECIST v1.1) with increasing tTMB ([2]; per treatment arm): higher ORR (confirmed per RECIST v1.1) was associated with increased tTMB
- ORR ([2]; BEP (n = 54 atezolizumab vs 38 docetaxel)): 13%
- ORR ([2]; ITT (n = 144 atezolizumab vs 143 docetaxel)): 15% vs 15%
- OS HR (95% CI) ([2]; BEP (n = 54 vs 38)): 0.65 (0.38, 1.12)
- PFS HR (95% CI) ([2]; BEP (n = 54 vs 38), unadjusted, unstratified): 0.98 (0.63, 1.53)
- OS HR (95% CI) ([2]; ITT (n = 144 vs 143)): 0.69 (0.49, 0.98)
- PFS HR (95% CI) ([2]; ITT (n = 144 vs 143), unadjusted, unstratified): 0.92 (0.71, 1.20)
- OS HR (95% CI) [2, 8]: 0.55 (0.29, 1.03)
- PFS HR (95% CI) [2, 8]: 0.88 (0.52, 1.48)
- OS HR (95% CI) [2, 9]: 0.48 (0.23, 1.04)
- PFS HR (95% CI) [2, 9]: 0.49 (0.25, 0.93)
- OS HR (95% CI) [2, 10]: 0.50 (0.15, 1.67)
- PFS HR (95% CI) [2, 10]: 0.49 (0.19, 1.30)
- ORR ([2]; tTMB quantile ≥25%): 14%
- ORR ([2]; tTMB quantile ≥50% (median)): 20%
- ORR ([2]; tTMB quantile ≥75%): 20%
